Assay results taken from US20220387457A1 (Qlaris Bio, Inc., priority 2020, published 2022).

Tests used:
single KATP channels = settings: in the presence of ATP; Brayden et al. 1991; cited from earlier work
[1] = target: T1, human Kir6.2/SUR2B KATP channel (Homo sapiens, UniProt O60706); experiment: FLIPR membrane potential assay in HEK-Kir6.2/SUR2B cells; type: cell-based; settings: glibenclamide 10 μM
T1 construct: expressed in transfected cells
Description: The ability of CKLP1 and the active moiety of CKLP1, leveromakalim, to pharmacologically modulate the function of the human ATP-sensitive potassium channel comprised of Kir6.2 (encoded by the human gene KCNJ11) coupled to the sulfonylurea receptor SUR2B (encoded by the human gene ABCC9) was studied.
Compounds were dissolved up to 10 mM stock solution in DMSO. Ten-point concentration response curves were generated at 100× concentration in 100% DMSO. Compound source plates were made by serially diluting 10 mM compound stocks in DMSO to generate a progressive semilog dilution schema. Dose response stock plate (10 μL) were then transferred into assay plates containing 90 μL of assay buffer, generating 10× working concentrations. Final assay test concentration ranges of 100 μM to 0.003 μM with a final DMSO concentration of 1.0%.
Human embryonic kidney (HEK) cells stably expressing human Kir6.2/SUR2B KATP channel subunits were plated onto 96 well, black poly-d-lysine (PDL)-coated microplates and maintained in growth media the day prior to use for experiments. Media was removed from the plates and 90 μL of 1× stock of the membrane potential sensitive fluorescent dye FMP-Blue resuspended in assay buffer (EBSS—in mM: NaCl 145, KCl 2, Glucose 5, CaCl2) 1.8, MgCl2 0.8, HEPES 10, pH 7.4 with NaOH, 290-300 mOSm) was added to the cells. Cells were incubated at room temperature, protected from light, for 45-60 minutes. After the incubation period, cell, test compound and glibenclamide plates were loaded onto the fluorescence plate reader (FLIPR-TETRA™) and the scanning initiated. The FLIPR measured a 10 second baseline and then added 10 μL of 10× the final desired concentration of test agent. Changes in fluorescence were monitored for an additional 5 minutes. After the 5-minute compound incubation, 10 μL of the receptor inhibitor glibenclamide was added to the cell plate (10 uM final glibenclamide concentration). Changes in fluorescence was then monitored for an additional 5 minutes.
Compound modulation of Kir6.2/SUR2B KATP channel mediated changes in cellular membrane potential was determined as follows. After the administration of compound, FMP fluorescence was monitored for a 5-minute period. The following parameters were recorded and exported from the FLIPR: the average relative fluorescence response (RFU) of 5 images taken at the 5-minute point in the assay with the average background EBSS buffer response subtracted. […] Test agent effect was calculated as % activation using the following formula: […]
Curve fits were performed in GraphPad Prism graphing software using a 4-parameter, variable slope fit equation.

[2] = cited from earlier work
[3] = system: α-SMA, CD31, endothelin-I, fibronectin, VE-cadherin, phospho-eNOS and total eNOS; experiment: Protein expression (western blot, immunocytochemistry) in 3D HTM/SC constructs; type: cell-based, human; settings: levcromakalim 1, 10 or 100 μM, Y-27632 10 μM
Description: Bioengineered 3D conventional outflow tract constructs using 4 donors (ages 47-91) were treated with […] (5 ng/mL) for 6 days. […] Protein expression of α-smooth muscle actin (α-SMA), CD31, endothelin-I, fibronectin, VE-cadherin, phospho-eNOS and total eNOS was analyzed via western blot. Cellular expression of α-SMA, fibronectin, phospho-eNOS and total eNOS was determined by immunocytochemistry and confocal microscopy. Statistical significance was determined by one-way ANOVA with a Tukey's multiple comparisons test, or by two-way ANOVA.

T1 sequence (O60706 1-1549 isoform O60706-2): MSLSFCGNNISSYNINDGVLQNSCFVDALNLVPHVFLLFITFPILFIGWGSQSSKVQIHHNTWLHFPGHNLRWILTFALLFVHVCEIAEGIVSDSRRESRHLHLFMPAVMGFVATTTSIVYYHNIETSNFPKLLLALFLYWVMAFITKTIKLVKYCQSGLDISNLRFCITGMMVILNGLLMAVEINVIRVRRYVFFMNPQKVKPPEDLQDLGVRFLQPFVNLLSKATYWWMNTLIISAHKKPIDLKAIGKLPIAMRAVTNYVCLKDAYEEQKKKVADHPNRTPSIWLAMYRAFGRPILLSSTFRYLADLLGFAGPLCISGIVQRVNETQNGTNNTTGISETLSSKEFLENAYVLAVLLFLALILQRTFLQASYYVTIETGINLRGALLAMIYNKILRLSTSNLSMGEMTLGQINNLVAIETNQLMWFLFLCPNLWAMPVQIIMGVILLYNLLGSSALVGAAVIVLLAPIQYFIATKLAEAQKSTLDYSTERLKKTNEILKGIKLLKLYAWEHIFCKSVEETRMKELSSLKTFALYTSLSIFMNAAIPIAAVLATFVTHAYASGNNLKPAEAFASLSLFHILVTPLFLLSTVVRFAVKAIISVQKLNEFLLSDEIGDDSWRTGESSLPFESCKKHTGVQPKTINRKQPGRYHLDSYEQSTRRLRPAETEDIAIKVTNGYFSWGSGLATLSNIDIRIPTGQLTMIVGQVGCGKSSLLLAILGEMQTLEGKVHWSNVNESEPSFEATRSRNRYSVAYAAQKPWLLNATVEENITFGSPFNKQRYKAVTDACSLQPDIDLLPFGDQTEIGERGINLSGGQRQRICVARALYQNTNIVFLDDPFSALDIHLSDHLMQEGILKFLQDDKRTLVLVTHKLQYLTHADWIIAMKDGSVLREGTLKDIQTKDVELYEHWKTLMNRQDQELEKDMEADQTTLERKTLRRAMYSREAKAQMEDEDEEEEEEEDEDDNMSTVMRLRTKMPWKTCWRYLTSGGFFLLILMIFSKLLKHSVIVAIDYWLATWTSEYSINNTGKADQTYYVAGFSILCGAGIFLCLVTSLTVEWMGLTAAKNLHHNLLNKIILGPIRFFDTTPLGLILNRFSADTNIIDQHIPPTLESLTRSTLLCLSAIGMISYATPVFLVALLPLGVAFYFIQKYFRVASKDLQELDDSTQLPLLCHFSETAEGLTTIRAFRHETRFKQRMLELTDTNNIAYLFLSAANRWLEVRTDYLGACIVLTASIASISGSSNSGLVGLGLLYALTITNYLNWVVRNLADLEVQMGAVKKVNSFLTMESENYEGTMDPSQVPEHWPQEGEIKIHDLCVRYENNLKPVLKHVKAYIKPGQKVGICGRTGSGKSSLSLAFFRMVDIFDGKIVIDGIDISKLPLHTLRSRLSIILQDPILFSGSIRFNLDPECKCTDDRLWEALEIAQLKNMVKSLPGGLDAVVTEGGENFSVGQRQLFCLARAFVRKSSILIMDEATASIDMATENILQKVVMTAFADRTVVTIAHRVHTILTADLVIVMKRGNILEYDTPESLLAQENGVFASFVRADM
T1 sequence (Q14654 whole entry partner): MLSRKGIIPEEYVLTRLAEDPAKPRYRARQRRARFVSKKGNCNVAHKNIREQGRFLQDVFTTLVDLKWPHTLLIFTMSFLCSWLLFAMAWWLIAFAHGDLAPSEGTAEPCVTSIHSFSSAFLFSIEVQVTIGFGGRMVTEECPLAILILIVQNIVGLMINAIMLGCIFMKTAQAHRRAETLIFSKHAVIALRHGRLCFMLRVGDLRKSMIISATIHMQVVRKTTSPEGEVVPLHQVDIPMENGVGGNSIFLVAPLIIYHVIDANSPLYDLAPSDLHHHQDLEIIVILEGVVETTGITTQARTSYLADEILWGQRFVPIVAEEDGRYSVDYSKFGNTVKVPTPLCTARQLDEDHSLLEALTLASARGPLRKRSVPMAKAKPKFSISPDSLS

hyperpolarization reversed by coadministration of glibenclamide [1]	SMILES	increase of open-state probability (Popen) of single KATP channels (single KATP channels)	solubility in water [2]	expression of the cell adhesion proteins CD31 and VE-Cadherin [3]	expression of the cell adhesion proteins CD31 and VE-Cadherin ([3]; listed as Y27632)
reversed	CC1(C)Oc2ccc(C#N)cc2C(N2CCCC2=O)C1O (stereo not drawn) [Cromakalim, cromakalim]	more than 9 fold	substantially insoluble in water	–	–
reversed	CC(N/C(=N\C#N)Nc1ccncc1)C(C)(C)C (stereo not drawn) [Pinacidil, pinacidil, reference compound]	–	–	–	–
–	C[C@@H](N)[C@H]1CC[C@H](C(=O)Nc2ccncc2)CC1 [Y-27632]	–	–	significantly decreased	decreased expression
